Source: ChEMBL document CHEMBL1138504, “Lipophilicity of basic drugs measured by hydrophilic interaction chromatography” (J Med Chem, 2009)

Key:
physchem [1] = details: octanol/water
physchem [2] = assay: physchem
[3] = buffer, pH 2
[4] = buffer, pH 2; remark: listed apart in the source
[5] = octanol/water

Row | SMILES | logP (physchem [1]) | pKa (physchem [2]) | log K [3] | log K [4] | logPc [5]
1 | CN(C)Cc1ccccc1 | 1.91 | 9.02 | 0.43 | -0.23 | 
2 | C=CCc1ccccc1OCC(O)CNC(C)C (stereo unspecified) [ALPRENOLOL] |  |  | 2.02 | -0.36 | 0.25
3 | CN1CCc2cccc3c2[C@H]1Cc1ccc(O)c(O)c1-3 [APOMORPHINE] | 2.49 |  | 2.74 | 0.33 | 
4 | CC(C)NCC(O)COc1ccc(COCCOC(C)C)cc1 (stereo unspecified) [BISOPROLOL] |  |  | 1.17 | -0.41 | -1.22
5 | CCCCN [BUTYLAMINE] |  | 10.8 | 0.756 | 0.29 | 
6 | CC(C)NCC(O)COc1cccc2[nH]c3ccccc3c12 (stereo unspecified) [CARAZOLOL] |  | 9.52 | 2.97 | -0.01 | 0.77
7 | COc1ccccc1OCCNCC(O)COc1cccc2[nH]c3ccccc3c12 (stereo unspecified) [CARVEDILOL] |  | 7.97 | 3.1 | -0.2 | 1.92
8 | Cc1cccc(C)c1NC(=O)C1CCCCN1C (stereo unspecified) [MEPIVACAINE] |  | 7.6 | 0.85 | -0.18 | 
9 | CC([C@H](O)c1ccccc1)N(C)C (stereo partly specified) [METHYLEPHEDRINE] | 1.55 | 9 | 0.64 | -0.14 | 
10 | CC(=O)Oc1c(C)cc(OCC(O)CNC(C)C)c(C)c1C (stereo unspecified) [METIPRANOLOL] |  | 9.54 | 1.57 | -0.5 | -0.26
11 | COCCc1ccc(OCC(O)CNC(C)C)cc1 (stereo unspecified) [METOPROLOL] |  |  | 1.1 | -0.27 | -1.1
12 | NCCO [MONOETHANOLAMINE] |  | 0.92 | -0.54 | 1.1 | 
13 | C1COCCN1 [MORPHOLINE] |  |  | -0.27 | 0.48 | 
14 | CC(=O)Oc1cc(C(C)C)c(OCCN(C)C)cc1C [MOXISYLYTE] |  | 8.72 | 1.53 | -0.86 | 
15 | CC(C)(C)NCC(O)COc1cccc2c1CC(O)C(O)C2 (stereo unspecified) [NADOLOL] | 0.81 |  | 0.59 | 0.5 | 
16 | CN1CCC[C@H]1c1cccnc1 [NICOTINE] | 1.34 | 3.4 | -0.02 | 0.14 | 
17 | NCC(O)c1ccc(O)cc1 (stereo unspecified) [OCTOPAMINE] |  | 8.81 | 0.44 | 1.15 | 
18 | C=CCOc1ccccc1OCC(O)CNC(C)C (stereo unspecified) [OXPRENOLOL] |  | 9.57 | 1.43 | -0.34 | -0.13
19 | CC(C)(C)NC[C@H](O)COc1ccccc1C1CCCC1 [PENBUTOLOL] | 4.62 | 9.92 | 3.08 | -0.51 | 1.32
20 | CC(C)NCC(O)COc1cccc2[nH]ccc12 (stereo unspecified) [PINDOLOL] |  |  | 1.63 | 0.08 | -1.32
21 | CCCNC(C)C(=O)Nc1ccccc1C (stereo unspecified) [PRILOCAINE] |  | 7.8 | 0.93 | -0.17 | 
22 | CCN(CC)CCOC(=O)c1ccc(N)cc1 [PROCAINE] |  | 9 | 1.05 | -0.26 | 
23 | CC(C)NCC(O)COc1cccc2ccccc12 (stereo unspecified) [PROPRANOLOL] |  |  | 2.71 | -0.19 | 
24 | C1COC(NC(C2CC2)C2CC2)=N1 [RILMENIDINE] | 1.7 | 9.22 | 0.88 | -0.41 | 
25 | NCCc1c[nH]c2ccc(O)cc12 [SEROTONIN] |  |  | 1.19 | 1.15 | 
26 | O=C1C[C@@H]2OCC=C3CN4CC[C@]56c7ccccc7N1[C@H]5[C@H]2[C@H]3C[C@H]46 [STRYCHNINE] |  |  | 1.18 | 0.06 | 
27 | CC(C)(C)NC[C@H](O)COc1nsnc1N1CCOCC1 [TIMOLOL] | 2.12 | 9.53 | 0.9 | 0.08 | -0.94
28 | COC(=O)[C@@H](N)Cc1ccc(O)cc1 [TYROSINE METHYL ESTER] |  |  | 0.26 | 0.57 | 
